Test results published in ChEMBL document CHEMBL1131934, “The design of non-peptide human bradykinin B2 receptor antagonists employing the benzodiazepine peptidomimetic scaffold” (Bioorg Med Chem Lett, 1999).

biological target: T1, B2 bradykinin receptor (Homo sapiens) (UniProt P30411); assay: Binding affinity towards human bradykinin B2 receptor (membranes from Cos-7 cells expressing human B2 receptor) using [3H]BK as radioligand; assay type: cell membranes; details: concentration not given here
T1 sequence (whole entry): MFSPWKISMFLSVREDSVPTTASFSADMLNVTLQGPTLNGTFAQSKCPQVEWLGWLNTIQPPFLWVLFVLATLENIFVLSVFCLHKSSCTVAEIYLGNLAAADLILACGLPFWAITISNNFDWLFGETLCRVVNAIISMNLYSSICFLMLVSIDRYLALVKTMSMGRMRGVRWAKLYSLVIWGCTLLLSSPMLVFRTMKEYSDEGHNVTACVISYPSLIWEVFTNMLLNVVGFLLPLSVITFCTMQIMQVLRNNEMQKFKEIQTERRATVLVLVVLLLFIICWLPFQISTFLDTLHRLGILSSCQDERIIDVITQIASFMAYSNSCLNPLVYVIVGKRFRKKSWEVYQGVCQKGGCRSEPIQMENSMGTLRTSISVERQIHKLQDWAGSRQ

Compound | inhibition [%]
NCCCCN1C(=O)C(Cc2ccccc2)N=C(c2ccccc2)c2ccccc21 (centres undefined) | 26

biological target: T2, B2 bradykinin receptor (Homo sapiens, UniProt P30411); assay: Binding affinity towards human bradykinin B2 receptor (membranes from Cos-7 cells expressing human B2 receptor) using [3H]-BK as radioligand; assay type: cell membranes; details: not given
T2 sequence (P30411 whole entry): T1 sequence (whole entry)

Compound | Ki [µM]
NC(N)=Nc1cccc(CN2C(=O)C(Cc3ccccc3)N=C(c3ccccc3)c3ccccc32)c1 (centres undefined) | 8.9
Nc1cccc(CN2C(=O)C(Cc3ccccc3)N=C(c3ccccc3)c3ccccc32)c1 (centres undefined) | > 100
N=C(N)Nc1cccc(CN2C(=O)[C@@H](Cc3ccccc3)N=C(c3ccccc3)c3ccccc32)c1 | 11.9
O=C(O)CN1C(=O)C(Cc2ccccc2)N=C(c2ccccc2)c2ccccc21 (centres undefined) | > 100
NC(N)=Nc1cccc(CN2C(=O)[C@H](Cc3ccccc3)N=C(c3ccccc3)c3ccccc32)c1 | 15.8
N=C(N)NCCCCN1C(=O)C(Cc2ccccc2)N=C(c2ccccc2)c2ccccc21 (centres undefined) | 21.3
O=C1Nc2ccccc2C(c2ccccc2)=NC1Cc1ccccc1 (centres undefined) | > 100
N=C(N)Nc1ccc(N2C(=O)C(Cc3ccccc3)N=C(c3ccccc3)c3ccccc32)cc1 (centres undefined) | 9.2
